# Assay results: ChEMBL document CHEMBL6182934, “Photo-clenbuterol: Optical Control of β2-Adrenergic Receptor Signaling by Photoswitchable Ligand Efficacy” (J Med Chem, 2025)
# Assay: Photothermal stability of compound in HBSS buffer assessed as thermal relaxation half life measured after pre-illumination of compound to reach cis-isomer
# Format: physicochemical
row,half-life,SMILES
1,29 days,CC(C)(C)NCC(O)c1ccc(/N=N/c2ccccc2)cc1 (racemic)
2,112 days,CC(C)(C)NCC(O)c1cc(Cl)c(/N=N/c2ccccc2)c(Cl)c1 (racemic)
3,26 days,CC(C)(C)NCC(O)c1cc(Cl)c(/N=N/c2c(Cl)cccc2Cl)c(Cl)c1 (racemic)
4,11 days,CC(C)(C)NCC(O)c1cc(Cl)c(/N=N/c2ccccc2)c(C#N)c1 (racemic)
5,38 days,CC(C)(C)NCC(O)c1ccc(/N=N/c2ccccc2)c(Cl)c1 (racemic)
